Values of other authors in patent US20250325256A1, “LIPID PATCH” (SENSACH AB, priority 2021, published 2025).

Details: cited from earlier work

Q: With `CCCCCCCC/C=C\CCCCCCCC(=O)OCC(O)CO` (stereo not shown) [GMO, Glycerol monooleate] as the compound, how does the solubility in water read?
A: around 10^−6 M
